Columns and labels:
[1] = target: T1, platelet cyclooxygenase (Oryctolagus cuniculus, UniProt O97554); test: Assay of platelet cyclooxygenase (intact washed platelets, TXB2 formation); format: cell-based, rabbit (male New Zealand White); conditions: 3 min pre-incubation, then [1-14C]arachidonic acid 5 min, 37° C., TXB2 counted
T1 construct: 1 ml of intact washed platelet suspensions were pre-incubated with test compounds; endogenous in cells; host or cells: intact washed platelets of male New Zealand White rabbits
T1 sequence (O97554 31-606): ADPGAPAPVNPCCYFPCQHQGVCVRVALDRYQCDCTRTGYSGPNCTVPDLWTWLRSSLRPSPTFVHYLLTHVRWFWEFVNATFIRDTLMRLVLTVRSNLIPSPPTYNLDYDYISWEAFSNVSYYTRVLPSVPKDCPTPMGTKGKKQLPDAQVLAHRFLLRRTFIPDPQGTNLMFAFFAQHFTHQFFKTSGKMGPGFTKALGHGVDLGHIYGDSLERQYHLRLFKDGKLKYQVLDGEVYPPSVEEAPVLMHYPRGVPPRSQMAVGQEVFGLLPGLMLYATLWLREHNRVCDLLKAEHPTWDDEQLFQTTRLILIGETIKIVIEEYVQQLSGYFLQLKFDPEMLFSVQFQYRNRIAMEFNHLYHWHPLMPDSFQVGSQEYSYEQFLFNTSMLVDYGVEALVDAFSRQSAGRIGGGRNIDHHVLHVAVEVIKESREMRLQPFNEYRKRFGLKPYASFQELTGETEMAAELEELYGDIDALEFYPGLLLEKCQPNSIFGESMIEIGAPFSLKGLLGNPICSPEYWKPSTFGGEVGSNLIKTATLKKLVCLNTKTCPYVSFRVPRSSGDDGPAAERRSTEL
Protocol: Assay of platelet cyclooxygenase
Preparation of washed platelet
Citrated blood (blood/3.8% sodium citrate=9:1 by volume) was obtained by heart-puncture from male New Zealand White rabbits weighing 3.21~4.75 kg and centrifuged at 1,000 rpm for 10 min. The platelet-rich plasma (the supernatant layer: PRP) was further centrifuged at 3,000 rpm for 10 min, and the resulting platelet was washed twice with buffer A (130 mM NaCl, 25 mM phosphate, pH 7.4, 1 mM EDTA). The washed platelets were resuspended in 50 mM phosphate (pH 7.4) containing 1 mM EDTA and adjusted 1×10^8 platelets/ml.
For the platelet cyclooxygenase assays, 1 ml of intact washed platelet suspensions were pre-incubated with test compounds (dissolved in DMSO) in the presence of 1 mM GSH at 37° C. for 3 min, and then the mixture was incubated with [1-^14 C]arachidonic acid (0.1 μCi) at 37° C. for 5 min. Each reaction was terminated and extracted by the addition of 3 ml of ethyl acetate/methanol/1M citric acid (30:4:1, v/v). The organic layer was evaporated under a N2 gas stream, redissolved in 30 μl of chloroform/methanol (2:1, v/v), and applied 20 μl to Silica gel TLC plates, and developed in the solvent system chloroform/methanol/acetic acid/H2 O (90:8:1:0.8, v/v). Radioactive zone of TXB2 (Thromboxane B2) was detected by autoradiography, scraped from the TLC plates, and counted by a liquid scintillation counter. IC50 value indicates the concentration to decrease the enzymatic product by 50% as compared to that of vehicle-treated control.

[2] = target: T2, 5-lipoxygenase (Cavia porcellus, UniProt A0A286X958); test: Assay of 5-lipoxygenase (PMNL cytosol fraction, 5-HETE formation); format: biochemical, guinea pig (male Hartley strain); conditions: 3 min pre-incubation, then [1-14C]arachidonic acid 5 min, 37° C., 1% DMSO, 5-HETE counted
T2 construct: 105,000×g for 60 min to obtain the cytosol fraction; endogenous in cells; host or cells: casein-elicited peritoneal polymorphonuclear leukocytes of male Hartley guinea pigs, 105,000×g cytosol fraction
T2 sequence (A0A286X958 1-674): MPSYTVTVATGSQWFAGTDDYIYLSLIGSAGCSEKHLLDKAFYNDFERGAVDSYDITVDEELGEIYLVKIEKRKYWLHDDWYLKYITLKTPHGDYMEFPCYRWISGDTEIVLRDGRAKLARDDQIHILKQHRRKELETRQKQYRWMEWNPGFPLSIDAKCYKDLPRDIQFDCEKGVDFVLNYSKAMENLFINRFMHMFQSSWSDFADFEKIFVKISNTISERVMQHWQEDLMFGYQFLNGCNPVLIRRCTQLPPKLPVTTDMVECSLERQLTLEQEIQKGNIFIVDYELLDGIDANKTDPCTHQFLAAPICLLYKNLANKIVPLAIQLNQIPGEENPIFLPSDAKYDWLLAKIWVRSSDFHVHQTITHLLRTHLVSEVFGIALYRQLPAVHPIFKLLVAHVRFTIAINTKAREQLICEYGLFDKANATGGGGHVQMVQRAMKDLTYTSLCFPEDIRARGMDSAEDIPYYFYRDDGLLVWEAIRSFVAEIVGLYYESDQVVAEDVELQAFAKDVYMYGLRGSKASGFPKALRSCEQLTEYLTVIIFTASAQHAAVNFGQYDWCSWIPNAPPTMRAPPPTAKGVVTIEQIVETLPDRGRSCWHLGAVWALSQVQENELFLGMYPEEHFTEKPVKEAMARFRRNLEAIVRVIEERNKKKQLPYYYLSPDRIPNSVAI
Protocol: Assay of 5-lipoxygenase […] Male Hartley strain guinea pigs weighing 580~740 g received intraperitoneal injection of 2% casein in saline (5 ml/100 g body weight). After 16~18 hr, the guinea pigs were sacrificed by bleeding from the carotid artery. Then 50 ml of Dulbecco's phosphate-buffered saline (PBS(-)) containing 5 units/ml of heparin were injected into the peritoneal cavity and peritoneal exudate was collected. The exudate was combined and filtered through 4 layers of cheese cloth, followed by centrifugation at 1,000 rpm for 10 min. Cell pellets were suspended in small amounts of PBS(-) and treated 3 volumes of 0.2% NaCl to lyse contamination red blood cells. The cells (80% or more PMNL as identified by Wright-Giemsa stain) were washed twice with buffer A (130 mM NaCl, 25 mM phosphate, pH 7.4, 1 mM EDTA). The washed cells (1×10^8 cells/ml) were resuspended in 50 mM phosphate (pH 7.4) containing 1 mM EDTA and 0.1% gelatin, sonicated and centrifuged at 10,000×g for 20 min. The supernatant solution was further centrifuged at 105,000×g for 60 min to obtain the cytosol fraction. Enzyme assays Test compounds were dissolved in dimethyl sulfoxide (DMSO), and the final concentration of DMSO was kept at 1% in each experiment. […] Each reaction was terminated by precipitating the proteins with 1 ml acetone and added 0.5 ml ice-cold saline. The pH was adjusted to about 3 with 150 μl 2N formic acid. The mixture was extracted twice with 2 ml chloroform. […] Radioactive zone of 5-HETE [5(S)-hydroxy-6,8,11,14-eicosatetraenoic acid] was detected by autoradiography, scraped from the TLC plates, and counted by a liquid scintillation counter. IC50 (50% Inhibition Concentration) value indicates the concentration to decrease the enzymatic product by 50% as compared to that of vehicle-treated control.

[3] = system: cyclooxygenase; conditions: background art; cited from earlier work
[4] = system: lipoxygenase; conditions: background art; cited from earlier work

| Compound | IC50 [1] | IC50 [2] | cyclooxygenase inhibition (in words) [3] | lipoxygenase inhibition (in words) [4] |
| --- | --- | --- | --- | --- |
| COc1ccc2c(c1)c(CC(=O)OC(CN1CCN(CCO)CC1)c1ccccc1)c(C)n2C(=O)c1ccc(Cl)cc1 (stereo not shown) [Example 9, 2-{4-(2-hydroxyethyl)-1-piperazinyl}-1-phenylethyl 1-(p-chlorobenzoyl)-5-methoxy-2-methyl-3-indoylacetate dimaleate] | 9.2 µM | 1.7 µM |  |  |
| COc1ccc2c(c1)c(CC(=O)OC(C)CN1CCN(CCCCCO)CC1)c(C)n2C(=O)c1ccc(Cl)cc1 (stereo not shown) [Example 10, 2-{4-(5-hydroxypentyl)-1-piperazinyl}-1-methylethyl 1-(p-chlorobenzoyl)-5-methoxy-2-methyl-3-indoylacetate dimaleate] | 22.8 µM | 6.2 µM |  |  |
| COc1ccc2c(c1)c(CC(=O)O)c(C)n2C(=O)c1ccc(Cl)cc1 [Indomethacin] |  | 242 µM | has cyclooxygenase-inhibiting action | does not inhibit lipoxygenase reaction |
| COc1ccc2c(c1)c(CC(=O)OC(CN1CCN(CCCO)CC1)c1ccccc1)c(C)n2C(=O)c1ccc(Cl)cc1 (stereo not shown) [Example 7, 2-{4-(3-hydroxypropyl)-1-piperazinyl}-1-phenylethyl 1-(p-clorobenzoyl)-5-methoxy-2-methyl-3-indoylacetate dimaleate] | 20.4 µM | 1.6 µM |  |  |
| CC(C(=O)O)c1ccc2oc(-c3ccc(Cl)cc3)nc2c1 (stereo not drawn) [Benoxaprofen, 2-(4-chlorophenyl)-α-methyl-5-benzoxazoleacetic acid] |  | 24 µM | cyclooxygenase-inhibiting | lipoxygenase-inhibiting actions |
| COc1ccc2c(c1)c(CC(=O)OC(C)CN1CCN(CCCCCCO)CC1)c(C)n2C(=O)c1ccc(Cl)cc1 (stereo not shown) [Example 11, 2-{4-(6-hydroxyhexyl)-1-piperazinyl}-1-methylethyl 1-(p-chlorobenzoyl)-5-methoxy-2-methyl-3-indoylacetate dimaleate] | 41.2 µM | 4.7 µM |  |  |
| COc1ccc2c(c1)c(CC(=O)OC(C)(C)CN1CCN(CCCOC3CCCCO3)CC1)c(C)n2C(=O)c1ccc(Cl)cc1 (stereo not shown) [Example 13, 1-methyl-2-[4-{3-(2-tetrahydropyranyloxy)propyl}-1-piperazinyl]-2-methyl-2-propyl 1-(p-chlorobenzoyl)-5-methoxy-2-methyl-3-indoylacetate] | 22.3 µM | 4.7 µM |  |  |
| COc1ccc2c(c1)c(CC(=O)OC(C)CN1CCN(CCCO)CC1)c(C)n2C(=O)c1ccc(Cl)cc1 (stereo not shown) [Example 8, 2-{4-(3-hydroxypropyl)-1-piperazinyl}-1-methylethyl 1-(p-chlorobenzoyl)-5-methoxy-2-methyl-3-indoylacetate dimaleate] | 30.6 µM | 6.9 µM |  |  |
| COc1ccc2c(c1)c(CC(=O)OC(CN1CCN(CCCCCCCCCCO)CC1)c1ccccc1)c(C)n2C(=O)c1ccc(Cl)cc1 (stereo not shown) [Example 12, 2-{4-(10-hydroxydecyl)-1-piperazinyl}-1-phenylethyl 1-(p-chlorobenzoyl)-5-methoxy-2-methyl-3-indoylacetate dimaleate] |  | 0.9 µM |  |  |

— patent publication US4696929A, “Derivative of piperazine having anti-allergic and anti-inflammatory action” (Taiho Pharmaceutical Company, Limited, priority 1984, dated 1987)
